Experimental data reported in paper PMC7926980, “The Antiproliferative and Apoptotic Effect of a Novel Synthesized S-Triazine Dipeptide Series, and Toxicity Screening in Zebrafish Embryos” (Molecules, 2021).

Columns and labels:
[1] = test system: HCT-116 cells; experiment: MTT cell viability assay, HCT-116; assay type: cell-based; conditions: Homo sapiens, 72 h treatment
Protocol: (§1) The antiproliferative activity of the synthesized compounds was evaluated by the 3-(4,5-dimethylthiazol-2-yl)-2,5-diphenyl tetrazolium bromide (MTT) cell viability assay. Two types of breast cancer cell lines—namely MCF-7, which has estrogen and progesterone receptors, and MDA-MB-231, which is triple negative—were used, in addition to a colon cancer cell line (HCT-116).
(§2) The target products 3a–o were evaluated for their antiproliferative activity using the MTT viability assay of the MCF-7, MDA-MB-231 and HCT-116 cell lines (in triplicate) on at least three independent occasions for the determination of the reported mean values.
(§3) The three human tumor cell lines MCF-7, MDA-MB-231 and HCT-116 were cultured in Dulbecco’s Modified Eagle’s Medium (DMEM) with 10% fetal bovine serum, 2 mM L-glutamine and 100 µg/mL penicillin/streptomycin. The cells were maintained at 37 °C in 5% CO2 in a humidified incubator. All of the cells were sub-cultured 3 times/week by trypsinization using TrypLE Express (1×).
(§4) In order to calculate the relative IC50 values, the antiproliferative effect of compounds 3a–o was tested in three cancer cell lines (MCF-7, MDA-MB-231, HCT-116) and normal epithelial embryonic kidney cells (HEK-293) using the MTT viability assay. The cells were seeded in 96-well plates at a density of 10 × 10^3 cells/mL, in a total volume of 200 µL per well. In total, 0.1% DMSO was used as a vehicle control. […] The culture medium was then removed, and the cells were washed with phosphate-buffered saline (PBS), and 100 µL MTT was added (for a final concentration of 5 mg/mL MTT). The cells were incubated for 4 h in darkness at 37 °C. Next, 200 µL DMSO was added to each well, and the cells were maintained at room temperature in darkness for 20 min. The absorbance was detected with a microplate reader at 570 nm. The results were expressed as a percentage of viability relative to the vehicle control (100%). The dose-response curves were plotted, and the IC50 values were obtained using Prism software (GraphPad Software, Inc., La Jolla, CA, USA). All of the experiments were repeated in three independent experiments.

[2] = test system: MCF-7 cells; experiment: MTT cell viability assay, MCF-7; assay type: cell-based, human; conditions: Homo sapiens, MCF7, 72 h, 72 h treatment
Protocol: as §1, §2, §3, §4

[3] = Zebrafish embryo mortality/toxicity; assay type: in vivo; conditions: wild-type, in vivo; zebrafish embryos, overnight exposure, 0.5 to 1000 µM; mean of three biological replicates ± standard deviation
Protocol: (§5) The zebrafish embryos were obtained by natural pairwise breeding, and were treated essentially as described previously.
(§6) The compounds were dissolved in dimethylsulfoxide (DMSO) in order to prepare a stock concentration of 10 mM. The embryos treated with 0.10% DMSO (v/v) served as the negative controls.
(§7) The fish were kept following the national and international guidelines for the care and use of laboratory animals. The fertilized eggs were obtained by the natural pairwise breeding of adult fish. The approval of the Ethics Committee for the use and care of laboratory animals was not needed, as zebrafish larvae less than 5 days post fertilization were used.
(§8) A stock solution of 50 mM was prepared by dissolving the compounds in dimethyl sulfoxide (DMSO). At least 30 fertilized eggs were sorted and placed in 60-mm sterile glass Petri dishes. A serial dilution of the compounds was prepared by adding the required amount of the compound directly into 5 mL water, and the zebrafish embryos were then exposed to serial dilutions (0.5 to 1000 µM) of each compound overnight. The number of dead and living embryos were counted after the overnight exposure.

[4] = test system: MDA-MB-231 cells; experiment: MTT cell viability assay, MDA-MB-231; assay type: cell-based; conditions: Homo sapiens, 72 h treatment
Protocol: as §1, §2, §3, §4

[5] = test system: zebrafish embryos; experiment: Zebrafish embryo imaging (morphology, teratogenicity); assay type: in vivo; conditions: 10 µM, embryos at 48 hpf
Text: The treated embryos had cardiac edema, craniofacial defects, tail lesions, and a delay in embryonic development. These observations are consistent with the findings in the literature.
A Zeiss Observer D1 inverted microscope using Zeiss ZEN software was used to capture the images of the live zebrafish embryos.
Figure 6 Representative images of the zebrafish embryos 48 hpf (A) control or (B) treated.

[6] = test system: zebrafish embryos; experiment: Zebrafish embryo mortality/toxicity; assay type: in vivo; conditions: maximum concentration tested 1 mM, versus DMSO control
Protocol: as §5, §6, §7, §8

Row | Compound | IC50 [1] [µM] | IC50 [2] [µM] | LC50 [3] [µM] | IC50 [4] [µM] | teratogenic effect in zebrafish embryos [5] | toxicity / mortality in zebrafish embryos [6]
1 | COC(=O)CNC(=O)CNc1nc(Nc2ccc(Cl)cc2)nc(N2CCCCC2)n1 [Compound 3i, Methyl (4-((4-chlorophenyl)amino)-6-(piperidin-1-yl)-1,3,5-triazin-2-yl) glycylglycinate] | 18.5 ± 1.45 | 8.37 ± 0.77 | 6.22 ± 0.39 | 22.3 ± 1.87 |  | 
2 | COC(=O)CNC(=O)CCNc1nc(Nc2ccc(Cl)cc2)nc(N2CCOCC2)n1 [Compound 3m, Methyl (3-((4-((4-chlorophenyl)amino)-6-morpholino-1,3,5-triazin-2-yl)amino)propanoyl) glycinate] | > 50 | 19.7 ± 1.48 | 5.58 ± 0.95 | 26.7 ± 1.32 |  | 
3 | COC(=O)C(C)NC(=O)CNc1nc(Nc2ccccc2)nc(N2CCCCC2)n1 (stereo not drawn) [Compound 3k, Methyl (4-(phenylamino)-6-(piperidin-1-yl)-1,3,5-triazin-2-yl) glycylalaninate] | > 50 | 15.3 ± 2.49 | 5.98 ± 0.53 | 13.3 ± 1.12 |  | 
4 | COC(=O)C(C)NC(=O)CNc1nc(Nc2ccc(Cl)cc2)nc(N2CCCCC2)n1 (stereo not drawn) [Compound 3l, Methyl (4-((4-chlorophenyl)amino)-6-(piperidin-1-yl)-1,3,5-triazin-2-yl) glycylalaninate] | 7.06 ± 0.27 | 1.46 ± 0.69 | 4.25 ± 0.38 | 8.31 ± 0.69 |  | 
5 | COC(=O)CNC(=O)CNc1nc(Nc2ccc(OC)cc2)nc(N2CCCCC2)n1 [Compound 3j, Methyl (4-((4-methoxyphenyl)amino)-6-(piperidin-1-yl)-1,3,5-triazin-2-yl) glycylglycinate] | 23.4 ± 3.43 | 25.3 ± 2.75 | 80.15 ± 0.59 | > 50 |  | 
6 | COC(=O)C(C)NC(=O)CNc1nc(Nc2ccc(OC)cc2)nc(N2CCOCC2)n1 (stereo not drawn) [Compound 3f, Methyl (4-((4-methoxyphenyl)amino)-6-morpholino-1,3,5-triazin-2-yl) glycylalaninate] | > 50 | 8.02 ± 0.5 | 28.4 ± 1.18 | 28.1 ± 1.07 |  | 
7 | CC/C(=C(\c1ccccc1)c1ccc(OCCN(C)C)cc1)c1ccccc1 [Tamoxifen, reference compound] |  |  |  |  | severe teratogenic effect | 
8 | COC(=O)CNC(=O)CNc1nc(Nc2ccc(Cl)cc2)nc(N2CCOCC2)n1 [Compound 3b, Methyl (4-((4-chlorophenyl)amino)-6-morpholino-1,3,5-triazin-2-yl) glycylglycinate] | > 50 | 6.18 ± 0.46 | > 1000 | > 50 |  | did not show any toxicity
9 | COC(=O)CNC(=O)CNc1nc(Nc2ccccc2)nc(N2CCCCC2)n1 [Compound 3h, Methyl (4-(phenylamino)-6-(piperidin-1-yl)-1,3,5-triazin-2-yl) glycylglycinate] | 15.2 ± 2.04 | 19.64 ± 0.08 | 10.1 ± 0.43 | > 50 |  | 
10 | COC(=O)C(C)NC(=O)CNc1nc(Nc2ccc(Cl)cc2)nc(N2CCOCC2)n1 (stereo not drawn) [Compound 3e, Methyl (4-((4-chlorophenyl)amino)-6-morpholino-1,3,5-triazin-2-yl) glycylalaninate] | > 50 | 4.35 ± 2.86 | 2.37 ± 0.27 | 8.2 ± 1.68 |  | 
11 | COC(=O)C(NC(=O)CNc1nc(Nc2ccc(Cl)cc2)nc(N2CCOCC2)n1)C(C)C (stereo not drawn) [Compound 3g, Methyl (4-((4-chlorophenyl)amino)-6-morpholino-1,3,5-triazin-2-yl) glycylvalinate] | 12.2 ± 1.74 | 13.2 ± 0.6 | 132.1 ± 0.86 | 24.1 ± 2.61 |  | 
12 | COC(=O)C(NC(=O)CCNc1nc(Nc2ccc(Cl)cc2)nc(N2CCCCC2)n1)C(C)C (stereo not drawn) [Compound 3o, Methyl (3-((4-((4-chlorophenyl)amino)-6-(piperidin-1-yl)-1,3,5-triazin-2-yl)amino)propanoyl) valinate] | 18.9 ± 2.82 | 4.64 ± 1.58 | 1.97 ± 0.27 | 15.7 ± 2.21 |  | 
13 | COC(=O)CNC(=O)CNc1nc(Nc2ccc(OC)cc2)nc(N2CCOCC2)n1 [Compound 3c, Methyl (4-((4-methoxyphenyl)amino)-6-morpholino-1,3,5-triazin-2-yl) glycylglycinate] | > 50 | 13.5 ± 1.01 | > 1000 | > 50 |  | did not show any toxicity
14 | COC(=O)C(C)NC(=O)CNc1nc(Nc2ccccc2)nc(N2CCOCC2)n1 (stereo not drawn) [Compound 3d, Methyl (4-morpholino-6-(phenylamino)-1,3,5-triazin-2-yl) glycylalaninate] | > 50 | 3.57 ± 0.81 | > 1000 | 16.2 ± 0.63 |  | did not show any toxicity
15 | COC(=O)C(NC(=O)CCNc1nc(Nc2ccc(Cl)cc2)nc(N2CCOCC2)n1)C(C)C (stereo not drawn) [Compound 3n, Methyl (3-((4-((4-chlorophenyl)amino)-6-morpholino-1,3,5-triazin-2-yl)amino)propanoyl) valinate] | 14.4 ± 1.37 | 2.35 ± 1.06 | 5.84 ± 1.09 | 8.48 ± 1.71 |  | 
